Test systems include M19-MEL melanoma; HOP-18 NSCLC; DLD-1 colon; XF 498 CNS; DMS 273 small cell lung; RXF-631 renal; LXFL 529 NSCLC; SNB-78 CNS; MDA-N.
Test in all cases: NCI anticancer screen, dose series, 48 h

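Exposure lasted 48 hours, with cells grown in 96-well plates and compounds tested at five concentrations. Here, GI50 denotes the concentration required for 50% inhibition of growth. At the TGI there is no net growth.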 A value given as a limit tells only on which side of the number the result lay.

As for `CN(C)N=Nc1ccc(S(N)(=O)=O)cc1`, the TGI in the experiment with M19-MEL melanoma, in the experiment on HOP-18 NSCLC, in the experiment with DLD-1 colon, in the experiment with XF 498 CNS and in the experiment with DMS 273 small cell lung was > 100 µM each time.

As to `CSc1nnc(C(C#N)C#N)nn1`, the TGI with M19-MEL melanoma, with RXF-631 renal, with LXFL 529 NSCLC, in the experiment on DLD-1 colon, in the experiment on XF 498 CNS and in the experiment on SNB-78 CNS was > 100 µM in each case. Also, the TGI with DMS 273 small cell lung was > 100 µM.

Consider `CC(=O)C1C(=O)C(=O)N(CCN2C(=O)C(=O)C(C(C)=O)C2=O)C1=O` (stereo not given), for which the TGI with M19-MEL melanoma, in the experiment with RXF-631 renal, with LXFL 529 NSCLC, in the experiment with HOP-18 NSCLC, in the experiment with XF 498 CNS and in the experiment with DMS 273 small cell lung was > 100 µM each time.

`CSc1nc(SC)c2c(C)cn(COCCOC(=O)c3ccccc3)c2n1`: the TGI in the experiment on MDA-N is > 100 µM.

On to `CCOC(=O)C1C(=O)CC(=O)C2CCCCC21` (stereo not given), for which the TGI in the experiment with RXF-631 renal, in the experiment on LXFL 529 NSCLC, in the experiment with DLD-1 colon, with XF 498 CNS, in the experiment on SNB-78 CNS and with DMS 273 small cell lung was > 100 µM throughout.

As to `NS(=O)(=O)c1ccc(N=Nc2c[nH]c(=O)c(O)c2)cc1`, the TGI with MDA-N is > 100 µM.

Turning to `COc1ccc2c(c1)[n+]([O-])c(-c1ccccc1Cl)c(N)[n+]2[O-]`, the TGI in the experiment with M19-MEL melanoma, in the experiment with RXF-631 renal, in the experiment with LXFL 529 NSCLC, with HOP-18 NSCLC, with DLD-1 colon and in the experiment on SNB-78 CNS was > 100 µM in each case. Further, in the experiment with DMS 273 small cell lung, the TGI was > 100 µM.

As to `CCN(CC)c1c(C)nnn1C1OC(COC(C)=O)C(OC(C)=O)C(OC(C)=O)C1OC(C)=O` (stereo not given), the TGI in the experiment on M19-MEL melanoma, in the experiment with RXF-631 renal, in the experiment on LXFL 529 NSCLC, in the experiment on HOP-18 NSCLC, with DLD-1 colon and in the experiment on SNB-78 CNS was > 100 µM each time.

Take `COc1cc(O)c(C(=O)/C=C/c2ccc(OC)c(OCc3ccccc3)c2)c(OC)c1`: the TGI in the experiment with M19-MEL melanoma was > 100 µM; in the experiment on LXFL 529 NSCLC, > 100 µM; in the experiment on HOP-18 NSCLC, > 100 µM; with DLD-1 colon, > 100 µM; in the experiment on XF 498 CNS it was > 100 µM; in the experiment with SNB-78 CNS it was 6.52 µM. In addition, the TGI in the experiment on DMS 273 small cell lung came out at 1.76 µM.

`O=C(CCc1ccccc1)CC1OC(=O)C(Cl)=C1Cl` (stereo not given): the TGI with M19-MEL melanoma was 33.8 µM; in the experiment with LXFL 529 NSCLC, 29.4 µM; in the experiment with HOP-18 NSCLC, 59.6 µM; with DLD-1 colon, 32.8 µM; in the experiment on XF 498 CNS, 41.4 µM; with SNB-78 CNS, > 100 µM. In the experiment with DMS 273 small cell lung, this compound yielded a TGI of 44 µM.

In the case of `Cc1[nH]c2cc([N+](=O)[O-])ccc2c1[N+](=O)[O-]`, the values for the TGI with LXFL 529 NSCLC, in the experiment with DLD-1 colon and in the experiment with XF 498 CNS were 48.3 µM, > 100 µM and 50 µM, respectively.

For the compound `COc1ccc(/C=C/c2ccnc3ccccc23)cc1OC`, in the experiment with MDA-N, the TGI was found to be 27 µM.

As to `Cc1ccc(S(=O)(=O)NNS(C)(=O)=O)cc1`, the TGI in the experiment on M19-MEL melanoma, in the experiment on LXFL 529 NSCLC, with DLD-1 colon and in the experiment with DMS 273 small cell lung was > 100 µM each time.

As to `O=C1C=CC(=O)c2c1nc(CBr)[nH]c2=O`, the TGI in the experiment with MDA-N is > 100 µM.

On to `N#Cc1ccc(C2SCc3nc4ccccc4n32)cc1` (stereo not given), for which the TGI in the experiment on M19-MEL melanoma, in the experiment with LXFL 529 NSCLC, with HOP-18 NSCLC, in the experiment with DLD-1 colon, with XF 498 CNS and in the experiment on SNB-78 CNS was > 100 µM in each case. Further, in the experiment on DMS 273 small cell lung, the TGI was > 100 µM.

`CCN(CC)C(=S)SS(C)(=O)=O`: the TGI in the experiment with M19-MEL melanoma is 30.6 µM; in the experiment with LXFL 529 NSCLC it was 30 µM; in the experiment on HOP-18 NSCLC, > 100 µM; in the experiment with DLD-1 colon, 33.3 µM; in the experiment on SNB-78 CNS, 43.7 µM; with DMS 273 small cell lung, 36 µM.

For the compound `CC1(C)C(=O)/C=C\C(=O)C(C)(C)C(=O)/C=C\C(=O)C(C)(C)C2=CC=C(O2)C(C)(C)C(=O)/C=C\C1=O`, the TGI was 13.6 µM in the experiment on M19-MEL melanoma; 19.1 µM in the experiment on MDA-N; > 52.7 µM in the experiment with RXF-631 renal; 6.14 µM with LXFL 529 NSCLC; 37.1 µM in the experiment on HOP-18 NSCLC; 3.61 µM in the experiment on DLD-1 colon. The TGI was 3.86 µM with XF 498 CNS, 15.7 µM with SNB-78 CNS and 10.1 µM with DMS 273 small cell lung.

In the case of `N#CC(/C(CCCC(=O)Nc1cccc([N+](=O)[O-])c1)=N\NC(=O)c1c(O)ccc2ccccc12)c1nc2ccccc2s1` (stereo not given), the TGI in the experiment with M19-MEL melanoma was 46.6 µM; with LXFL 529 NSCLC it was > 100 µM; with HOP-18 NSCLC it was > 100 µM; in the experiment on DLD-1 colon, > 100 µM; with XF 498 CNS, > 100 µM; with SNB-78 CNS, > 100 µM. In the experiment on DMS 273 small cell lung, this compound gave a TGI of 68.3 µM.

For `N=C(CC(=O)Nc1ccccn1)c1ccccc1`, in the experiment with MDA-N, the TGI was > 100 µM.

The compound `CCC(c1ccccc1)c1cc(C(C)(C)C)cc(C(C)(C)C)c1O` (stereo not given) displayed a TGI in the experiment with MDA-N of 30.9 µM.

For `COc1ccc(C(=O)C(C(=O)C(=O)NCCCNC(=O)C(=O)C(C(=O)c2ccc(OC)cc2)c2ccc(OC)cc2)c2ccc(OC)cc2)cc1` (stereo not given), the TGI with LXFL 529 NSCLC, with HOP-18 NSCLC, with DLD-1 colon, in the experiment on XF 498 CNS, with SNB-78 CNS and in the experiment on DMS 273 small cell lung was > 100 µM each time.

As to `Cc1c(-c2ccccn2)ccc2ccccc12`, the TGI in the experiment with MDA-N was > 100 µM.

As to `COC1/C(=C\C(C)=O)c2ccccc2N1C(C)=O` (stereo not given), the TGI in the experiment with M19-MEL melanoma, in the experiment with RXF-631 renal, in the experiment with LXFL 529 NSCLC, in the experiment with HOP-18 NSCLC, in the experiment with DLD-1 colon and in the experiment with XF 498 CNS was > 100 µM in each case. Further, the TGI in the experiment on DMS 273 small cell lung was > 100 µM.

Regarding `Cc1ccc(S(=O)(=O)C2CC2(Cl)Cl)cc1` (stereo not given), the TGI in the experiment with M19-MEL melanoma is 67.7 µM; in the experiment on RXF-631 renal, 50.8 µM; in the experiment on LXFL 529 NSCLC it was 34 µM; with DLD-1 colon, 61.1 µM; with XF 498 CNS, 45.2 µM; with DMS 273 small cell lung, > 100 µM.

Consider `O=C(N/C(=C\c1ccc(/C=C(\NC(=O)c2ccccc2)c2nc3c(O)nc(S)nc3[nH]2)cc1)c1nc2c(O)nc(S)nc2[nH]1)c1ccccc1`, for which the TGI in the experiment with RXF-631 renal, with LXFL 529 NSCLC, in the experiment with HOP-18 NSCLC, in the experiment with DLD-1 colon, in the experiment on XF 498 CNS and in the experiment on SNB-78 CNS was > 100 µM each time. Further, the TGI with DMS 273 small cell lung was > 100 µM.

For the compound `CC1=C2C=CC(=O)C[C@@]2(C)CCC1`, the TGI with M19-MEL melanoma, in the experiment on RXF-631 renal, in the experiment on LXFL 529 NSCLC, in the experiment with DLD-1 colon, in the experiment on XF 498 CNS and in the experiment with SNB-78 CNS was > 100 µM in each case. Besides, in the experiment on DMS 273 small cell lung, the TGI is > 100 µM.

Turning to `CCN(CC)c1ccc(C2N3CCCCC3[C@@H]3c4[nH]c5ccccc5c4CCN23)cc1` (stereo not given in full), the TGI was 57.1 µM in the experiment with M19-MEL melanoma; 55.6 µM in the experiment with LXFL 529 NSCLC; > 100 µM in the experiment on HOP-18 NSCLC; > 100 µM in the experiment with DLD-1 colon; 41 µM in the experiment with XF 498 CNS; 61.3 µM with SNB-78 CNS. In addition, the TGI with DMS 273 small cell lung was > 100 µM.

Regarding `Cc1cc(Br)ccc1N=Nc1c(C)nn(-c2ccccc2)c1-c1ccccc1`, the TGI with M19-MEL melanoma, with LXFL 529 NSCLC, with HOP-18 NSCLC, in the experiment with DLD-1 colon, in the experiment on XF 498 CNS and in the experiment with SNB-78 CNS was > 100 µM each time. Also, the TGI in the experiment on DMS 273 small cell lung was > 100 µM.

`CC(=O)CC(=O)Nc1ccccc1C(F)(F)F`: the TGI in the experiment on M19-MEL melanoma, in the experiment on RXF-631 renal, in the experiment with LXFL 529 NSCLC, in the experiment with DLD-1 colon, in the experiment with XF 498 CNS and with SNB-78 CNS was > 100 µM in each case.

On to `CC(=O)[CH-]C(=O)c1ccccc1.CC(=O)[CH-]C(=O)c1ccccc1.CC(=O)[CH-]C(=O)c1ccccc1.[Ga+3]`, for which the GI50 with M19-MEL melanoma was 13.4 µM; with LXFL 529 NSCLC, 12 µM; with HOP-18 NSCLC, 18 µM; with DLD-1 colon it was 16.6 µM. Moreover, the TGI is 30.5 µM with M19-MEL melanoma, 24.8 µM in the experiment with LXFL 529 NSCLC, 61.5 µM with HOP-18 NSCLC and 53.6 µM in the experiment with DLD-1 colon.
